Source: PubChem BioAssay (NCI)
Where “and” joins values, the source holds several entries; their conditions need not be identical. Equal entries are not always repeated.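 1) Cells in 96-well plates. 2) Compound, 48 h, 5 concentrations. 3) Linear interpolation between surrounding doses. 4) Unreached endpoint = highest concentration. GI50 = concentration required for 50% inhibition of growth. The concentration for full growth arrest is given as TGI.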

Legend:
Test in all cases: NCI tumour cell line growth inhibition, 48 h
NCI-H23 lung = system: NCI-H23 lung
SK-OV-3 ovarian = system: SK-OV-3 ovarian
COLO 205 colon = system: COLO 205 colon
MALME-3M melanoma = system: MALME-3M melanoma
SF-295 CNS = system: SF-295 CNS
HOP-62 NSCLC = system: HOP-62 NSCLC
SR leukemia = system: SR leukemia
MDA-MB-231 breast = system: MDA-MB-231 breast
BT-549 breast = system: BT-549 breast
MCF7 breast = system: MCF7 breast

SMILES | TGI (NCI-H23 lung) [µM] | TGI (SK-OV-3 ovarian) [µM] | TGI (COLO 205 colon) [µM] | TGI (MALME-3M melanoma) [µM] | TGI (SF-295 CNS) [µM] | TGI (HOP-62 NSCLC) [µM] | TGI (SR leukemia) [µM] | GI50 (NCI-H23 lung) [µM] | GI50 (HOP-62 NSCLC) [µM] | GI50 (MDA-MB-231 breast) [µM] | TGI (MDA-MB-231 breast) [µM] | GI50 (SK-OV-3 ovarian) [µM] | GI50 (BT-549 breast) [µM] | TGI (BT-549 breast) | GI50 (COLO 205 colon) [µM] | GI50 (SR leukemia) [µM] | GI50 (MCF7 breast) [µM] | TGI (MCF7 breast) [µM] | GI50 (SF-295 CNS) [µM] | GI50 (MALME-3M melanoma) [µM]
O=C(O)CCNS(=O)(=O)c1ccc2ccccc2c1 | > 100 | > 100 | > 100 | > 100 | > 100 | – | – | – | – | – | – | – | – | – | – | – | – | – | – | –
COc1ccc2oc3c(OC)c(OC)c(OC)cc3c(=O)c2c1 | > 100 | > 100 | > 100 | > 100 | – | > 100 | – | – | – | – | – | – | – | – | – | – | – | – | – | –
CCOC(=O)c1cc(-c2ccc(-c3cc(C(=O)OCC)c(C#N)c(N)c3C#N)cc2)c(C#N)c(N)c1C#N | > 100 | > 100 | > 100 | > 100 | > 100 | > 100 | > 100 | – | – | – | – | – | – | – | – | – | – | – | – | –
CC(=O)N1CCN(CCNC(=O)n2cc(-c3ccncc3)c(-c3cc(O)cc(Cl)c3)n2)CC1 | 46 | 25.4 | 20.9 | – | 25.7 | 32.6 | 22.5 | 17.1 | 16.7 | 11.7 | 26.7 | 12.4 | 13 | 27.1 µM | 6.26 | 4.78 | 14.7 | 32.9 | 10.5 | –
Cc1ccc(N=C[N-]c2ccc(C)cc2)cc1.Cc1ccc(N=C[N-]c2ccc(C)cc2)cc1.O=C([O-])C(F)(F)F.O=C([O-])C(F)(F)F.[OH3+].[OH3+].[Rh+2].[Rh+2] | 70.3 | > 100 | > 100 | 56.1 | > 100 | > 100 | – | 25.9 | > 100 | – | – | > 100 | – | – | 36.3 | – | – | – | 86.8 | 28
CN1Cc2ccccc2/C=C\c2ccccc21 | > 100 | > 100 | > 100 | > 100 | > 100 | > 100 | – | – | – | – | > 100 | – | – | > 100 µM | – | – | – | 67.9 | – | –
C#CC1=CC(=O)C(OC)=CC1=O | 60 | > 100 | > 100 | 55.2 | > 100 | 36.6 | 36.4 | – | – | – | 34.8 | – | – | – | – | – | – | 35.8 | – | –
COCCOc1cc(C)cc(/C=C(C)/C=C/C2=C(C)CCCC2(C)C)n1 | > 100 | > 100 | > 100 | > 100 | > 100 | > 100 | > 100 | – | – | – | – | – | – | – | – | – | – | – | – | –
NC1c2ccccc2Nc2ccccc21 | 17.5 | 23.6 | 6.52 | 19 | 17 | 26.7 | 7.24 | – | – | – | – | – | – | – | – | – | – | – | – | –
O=C(C(=O)n1ncc(Cl)c(Cl)c1=O)n1ncc(Cl)c(Cl)c1=O | 41.5 | > 100 | 29 | 48.1 | > 100 | > 100 | – | – | – | – | – | – | – | – | – | – | – | – | – | –
CCCCCC(=O)Nc1nc2nc[nH]c2c(=O)[nH]1 | > 100 | > 100 | > 100 | > 100 | > 100 | > 100 | > 100 | – | – | – | – | – | – | – | – | – | – | – | – | –
Cc1cccc(C(=O)O)c1C(=O)c1cccc2ccccc12 | > 100 | > 100 | > 100 | > 100 | > 100 | > 100 | > 100 | – | – | – | – | – | – | – | – | – | – | – | – | –
CC1=C(SC#N)S(=O)(=O)N(c2ccccc2)C(C)=C1SC#N | > 100 | 89.9 | – | > 100 | 67.1 | – | 65.5 | – | – | – | – | – | – | – | – | – | – | – | – | –
CCCCCCCC1(c2ccc(N)cc2)CCC(=O)NC1=O (stereo not drawn) | > 100 | > 100 | 52.5 | > 100 | 88.1 | > 100 | – | – | – | – | – | – | – | – | – | – | – | – | – | –
Cc1ccc(NC(=O)C(=O)CC(=O)c2c(C)n([O-])c3ccccc3[n+]2=O)cc1C | > 100 | > 100 | > 100 | > 100 | > 100 | > 100 | > 100 | – | – | – | – | – | – | – | – | – | – | – | – | –
Clc1ccc(-c2c3ccc(=[N+]4CCCCC4)cc-3oc3cc(N4CCCCC4)ccc23)cc1 | – | 0.715 | – | – | – | 0.202 | – | – | 0.0635 | – | – | 0.204 | 0.154 | 0.31 µM | – | – | – | – | – | –
CCC[CH2][Sn]([CH2]CCC)([S]C#N)[S]C#N | 2.14 | 3.39 | 3.77 | 2.27 | 2.94 | 3.58 | 2.54 | 0.609 | 1.98 | – | – | 1.77 | – | – | 1.4 | 0.36 | – | – | 1.53 | 0.753
COc1cc(/C=C/c2ccc(O)c(OC)c2)cc(OC)c1 | > 100 | 76.9 | > 100 | > 100 | 54.7 | > 100 | > 100 | – | – | – | – | – | – | – | – | – | – | > 100 | – | –
N#CC(C(=O)CCCC(=O)Nc1ccc(Cl)cc1Cl)c1ccccc1 (stereo not drawn) | > 100 | > 100 | > 100 | > 100 | > 100 | > 100 | > 100 | – | – | – | – | – | – | – | – | – | – | – | – | –
Cc1ccc(C)c(N2C(=O)C(=O)C(c3nc4ccccc4o3)C(=O)C2=O)c1 | > 100 | > 100 | 95.4 | > 100 | > 100 | > 100 | > 100 | – | – | – | – | – | – | – | – | – | – | – | – | –
CCCCCC(O)C(O)CCC[C@H](O)[C@H]1CC[C@H]([C@H]2CC[C@H]([C@H](O)CCCCCCCCCCCCC3=C[C@H](C)OC3=O)O2)O1 (stereo partly drawn) | 23.3 | – | 14.2 | 29.8 | – | 32 | – | – | 15.2 | 17.6 | 82.9 | – | – | 2.79 µM and 25.5 µM | – | – | 3.78 | 31.4 | – | –
CC(=O)OC12C=C(C)C(C(C)C1)C1C(=O)N(CCN3CCCCC3)C(=O)C12 (stereo not drawn) | > 50 | > 50 | > 50 | > 50 | > 50 | > 50 | > 50 | > 50 | > 50 | > 50 | > 50 | > 50 | > 50 | > 50 µM | > 50 | > 50 | – | – | > 50 | > 50
CCCCCCCCCCCCC(O)c1ccco1 (stereo not drawn) | 30.4 | 44.7 | > 100 | – | 39.3 | 36.8 | – | 16.2 | 20.6 | 17.4 | 32.7 | 22.5 | 20.1 | 40.8 µM | 36.6 | – | 29.4 | > 100 | 19.7 | –
